Source: publication PMC7997032, “Organic synthesis and anti-influenza A virus activity of cyclobakuchiols A, B, C, and D” (PLoS ONE, 2021)
Where “and” joins values, the source holds several entries; their conditions need not be identical. Equal values may be shown once.

Test system: MDCK cells
Assay: MTT assay (cytotoxicity against MDCK cells)
Type: cell-based, canine
Details: MDCK cells; for MTT, DMSO as 100 (DMSOを 100として), ave / MTT 72h AVE (DMSO = 100): 72h; for MTT, DMSO as 100 (DMSOを 100として), ave: mean of 5 wells (200409 #1 and #3); for MTT 72h AVE (DMSO = 100): summary AVE; for MTT 24h, AVE (DMSO as 100) / MTT 24h, 570-650nm, DMSO as 100, ave: mean of 5 wells from 3 experiments; for MTT 24h, AVE (DMSO as 100): relative to DMSO = 100; for MTT 24h, 570-650nm, DMSO as 100, single replicate: individual wells (200331; 200403 #2 1,2; 200403 #3 1,2); for 570-650nm (MTT absorbance, single wells) / 570-650nm ave (mean MTT absorbance of 5 wells) / MTT absorbance with DMSO as 100 (DMSOを 100として), single wells: MTT 72h; for 570-650nm (MTT absorbance, single wells): experiments #1-#3, duplicate wells; for MTT absorbance with DMSO as 100 (DMSOを 100として), single wells: relative to mean of DMSO
Procedure: 1–5 (0.8–100 μM) were prepared in DMSO (100 μM, 1%; 50 μM, 0.5%; 25 μM, 0.25%; 12.5 μM, 0.125%; 6.3 μM, 0.063%; 3.1 μM, 0.031%; 1.6 μM, 0.016%; 0.8 μM, 0.008%) and mixed with infection medium (DMEM supplemented with 1% bovine serum albumin (BSA; Wako), P/S and 4 mM L-glutamine). The resulting mixture was added to the cells and incubated for 24 or 72 h at 37°C in the presence of 5% CO2. After incubation, cell viability was determined using an MTT cell count kit (Nacalai Tesque) according to the manufacturer’s instructions, as previously described.

[1] = 3.13uM (3.125uM in summary block)

Row | Structure (SMILES) | MTT, DMSO as 100 (DMSOを 100として), ave (0.78uM) | MTT, DMSO as 100 (DMSOを 100として), ave (1.56uM) | MTT, DMSO as 100 (DMSOを 100として), ave (3.125uM) | MTT 72h AVE (DMSO = 100) (6.25 (uM)) | MTT 72h AVE (DMSO = 100) (12.5 (uM)) | MTT 72h AVE (DMSO = 100) (25 (uM)) | MTT 72h AVE (DMSO = 100) (50 (uM)) | MTT 72h AVE (DMSO = 100) (100 (uM)) | MTT 24h, AVE (DMSO as 100) (0.78 uM) | MTT 24h, AVE (DMSO as 100) (1.56 uM) | MTT 24h, 570-650nm, DMSO as 100, single replicate (3.125uM) | MTT 24h, 570-650nm, DMSO as 100, ave (3.125uM) | MTT 24h, 570-650nm, DMSO as 100, single replicate (6.25uM) | MTT 24h, 570-650nm, DMSO as 100, ave (6.25uM) | MTT 24h, 570-650nm, DMSO as 100, single replicate (12.5uM) | MTT 24h, 570-650nm, DMSO as 100, ave (12.5uM) | MTT 24h, 570-650nm, DMSO as 100, single replicate (25uM) | MTT 24h, 570-650nm, DMSO as 100, ave (25uM) | MTT 24h, 570-650nm, DMSO as 100, single replicate (50uM) | MTT 24h, 570-650nm, DMSO as 100, ave (50uM) | also measured
1 | C=C[C@]1(C)CC[C@@H](C(=C)C)[C@H](c2ccc(O)cc2)C1 [Cyclo. B] | 97.4368 | 107.487 | 135.205 | 152.012 | 128.856 | 133.275 | 92.332 | 27.1545 | 105.371 | 93.7053 | 97.7259 and 87.8578 and 108.85 and 106.215 and 84.4914 | 97.028 | 100.056 and 92.1514 and 106.191 and 111.594 and 90.247 | 100.048 | 100.027 and 92.2079 and 111.97 and 107.481 and 100.019 | 102.341 | 93.3176 and 99.811 and 119.964 and 115.104 and 108.65 | 107.369 | 101.366 and 118.852 and 85.3652 and 130.523 and 116.385 | 110.498 | MTT 24h, 570-650nm, DMSO as 100, single replicate (100uM): 120.469 and 116.882 and 135.616 and 105.182 and 78.3439; MTT 24h, 570-650nm, DMSO as 100, ave (100uM): 111.299; 570-650nm (MTT absorbance, single wells) (0.78uM): 1.0803 and 0.7822 and 0.6986 and 0.7618 and 0.6844 and 0.8059; 570-650nm (MTT absorbance, single wells) (1.56uM): 0.9938 and 0.9382 and 0.7725 and 0.5035 and 0.9217 and 0.7676; 570-650nm (MTT absorbance, single wells) [1]: 0.8489 and 0.8759 and 0.9309 and 0.9208 and 0.9982 and 0.8279; 570-650nm ave (mean MTT absorbance of 5 wells) (6.25uM): 1.04; 570-650nm (MTT absorbance, single wells) (6.25uM): 0.8643 and 1.0571 and 1.004 and 1.1478 and 1.1256 and 0.8768; MTT absorbance with DMSO as 100 (DMSOを 100として), single wells (6.25uM): 154.547 and 146.784 and 167.807 and 164.561 and 126.36; 570-650nm ave (mean MTT absorbance of 5 wells) (12.5uM): 1.026; 570-650nm (MTT absorbance, single wells) (12.5uM): 1.0196 and 0.9592 and 1.0242 and 0.9589 and 1.0117 and 1.1742; MTT absorbance with DMSO as 100 (DMSOを 100として), single wells (12.5uM): 120.471 and 128.675 and 147.52 and 127.104 and 120.509; 570-650nm ave (mean MTT absorbance of 5 wells) (25uM): 1.002; 570-650nm ave (mean MTT absorbance of 5 wells) (50uM): 0.8426; 570-650nm ave (mean MTT absorbance of 5 wells) (100uM): 0.2557; 570-650nm (MTT absorbance, single wells) (100uM): 0.2419 and 0.2859 and 0.234 and 0.2603 and 0.2251 and 0.273; MTT absorbance with DMSO as 100 (DMSOを 100として), single wells (100uM): 27.6474 and 24.854 and 28.9963 and 23.9087 and 30.3664
2 | C=C[C@]1(C)CC[C@H](C(C)(C)O)[C@@H](c2ccc(O)cc2)C1 [Cyclo. C] | 97.7369 | 116.194 | 124.106 | 130.219 | 123.122 | 141.455 | 116.495 | 142.83 | 97.4262 | 89.4582 | 98.8583 and 80.6936 and 68.9227 and 107.532 and 92.5261 | 89.7067 | 105.442 and 92.9243 and 77.243 and 111.801 and 97.5139 | 96.9849 | 112.407 and 88.505 and 78.5484 and 110.111 and 102.316 | 98.3774 | 89.9468 and 93.8621 and 86.7762 and 109.435 and 109.619 | 97.9279 | 107.424 and 104.395 and 78.3927 and 112.047 and 113.734 | 103.198 | MTT 24h, 570-650nm, DMSO as 100, single replicate (100uM): 113.671 and 119.568 and 104.628 and 127.474 and 126.723; MTT 24h, 570-650nm, DMSO as 100, ave (100uM): 118.413; 570-650nm (MTT absorbance, single wells) (0.78uM): 0.9938 and 0.7395 and 0.7311 and 0.6372 and 0.8862 and 0.7504; 570-650nm (MTT absorbance, single wells) (1.56uM): 0.9464 and 0.9776 and 0.7533 and 0.5791 and 0.9528 and 0.9569; 570-650nm (MTT absorbance, single wells) [1]: 0.9669 and 0.8575 and 0.7479 and 0.8256 and 0.9 and 0.8489; 570-650nm ave (mean MTT absorbance of 5 wells) (6.25uM): 0.8907; 570-650nm (MTT absorbance, single wells) (6.25uM): 0.8518 and 0.8346 and 0.7398 and 1.0173 and 1.01 and 0.9632; MTT absorbance with DMSO as 100 (DMSOを 100として), single wells (6.25uM): 122.018 and 108.158 and 148.728 and 147.661 and 124.532; 570-650nm ave (mean MTT absorbance of 5 wells) (12.5uM): 0.98; 570-650nm (MTT absorbance, single wells) (12.5uM): 0.9561 and 0.8827 and 0.8467 and 1.0013 and 1.1241 and 1.0452; MTT absorbance with DMSO as 100 (DMSOを 100として), single wells (12.5uM): 125.798 and 106.375 and 131.313 and 141.226 and 110.898; 570-650nm ave (mean MTT absorbance of 5 wells) (25uM): 1.064; 570-650nm (MTT absorbance, single wells) (25uM): 0.9926 and 0.9592 and 0.9724 and 1.0619 and 1.1012 and 1.2247; MTT absorbance with DMSO as 100 (DMSOを 100として), single wells (25uM): 141.191 and 129.291 and 162.837 and 146.417 and 127.536; 570-650nm ave (mean MTT absorbance of 5 wells) (50uM): 1.063; 570-650nm (MTT absorbance, single wells) (50uM): 1.1675 and 1.0763 and 1.0296 and 0.8397 and 1.1252 and 1.245; MTT absorbance with DMSO as 100 (DMSOを 100として), single wells (50uM): 92.0098 and 112.818 and 136.42 and 123.293 and 117.935; 570-650nm ave (mean MTT absorbance of 5 wells) (100uM): 1.345; 570-650nm (MTT absorbance, single wells) (100uM): 1.4551 and 1.3837 and 1.3254 and 1.1438 and 1.3954 and 1.4754; MTT absorbance with DMSO as 100 (DMSOを 100として), single wells (100uM): 121.487 and 140.775 and 156.707 and 148.21 and 146.968
